Reference: patent publication US6043357A, “HIV protease inhibitors” (The University of Queensland, priority 1994, dated 2000)
pIC50: −log10 of the molar value. Entries after “also recorded” stand apart in the source; their conditions may differ. Where two headings read alike, the source gives them in different places. One block for each compound: values may come before it.

What was measured:
HIV-1 protease = HIV-1 protease (Human immunodeficiency virus type 1 group M subtype B, UniProt P03369); experiment: biochemical
Method: HIV-1 protease activity was measured at 37° C. using a continuous fluorimetric assay based on the method of Toth et al., (Toth et al., 1990, Int. J. Pept. Res. 36 544-550). The substrate, 2-aminobenzoyl-threonine-isoleucine-norleucine-(p-nitro)-phenylalanine-glutamine-arginine-NH2 (Abz-NF^* -6), was synthesised by solid phase peptide synthesis (Kent et al., 1991, In: Peptides 1990: Proceedings of the Twenty-First European Peptide Symposium (Girault, E. and Andrew, D. eds.) pp 172-173, ESCOM, Leiden). Enzyme activity was measured as the increase in fluorescence intensity upon substrate hydrolysis. The change in fluorescence intensity was monitored with a Perkin Elmer LS50B luminescence spectrometer fitted with a thermostatted micro cuvette holder. Measurements were carried out using an excitation wavelength of 320 nm (bandwith 5 nm) and an emission wavelength of […] (bandwith 5 nm).
Inhibition assays were routinely carried out at pH 6.5 and μ=0.1 M using a single substrate concentration. The assay mixtures contained 50 μM Abz-NF^* -6 in 100 mM 2-(N-morpholino)ethanesulphonate buffer, containing 10% (v/v) glycerol and 50 μg/ml bovine serum albumin, in a total final volume of 400 μl. Where inhibitors had to be dissolved in dimethyl sulphoxide or other organic solvents, the final concentration of solvent in the control and inhibition assays were kept absolutely constant because of the severe inhibitory effect of some solvents on the enzyme activity (Bergman et al., 1992, 17th Ann. Lorne Conf. on Protein Struct. and Funct. Abstr.). In all assays, the reaction was initiated by the addition of 10 μl of enzyme solution.

HIV = experiment: Activity against HIV in cells / cell culture; type: cell-based
[1] = Table 7, pH 6.5, 37° C., read-out: IC50
[2] = Table 9, R isomer, read-out: IC50
[3] = Table 10, pH 6.5, 37° C., read-out: IC50
[4] = Table 9, S isomer, read-out: IC50

pIC50 (HIV-1 protease; [2]): 7.82
Compound: CC[C@H](C)[C@@H]1NC(=O)[C@@H](NC[C@@H](O)[C@H](Cc2ccccc2)NC(=O)O[C@H]2CCOC2)Cc2ccc(cc2)OCCCNC1=O [Compound 91, [2R, 3S, 11'S, 8'S]-3-[3S-tetrahydrofuranyloxy]amino-4-phenyl-1-[11'-[7',10'-dioxo-8'-(1-methylpropyl)-2'-oxa-6',9'-diazabicyclo[11.2.2]heptadeca-13',15',16'-triene]amino]butan-2-ol]
protease inhibition, stated in words (HIV-1 protease): not better as a P2 filler over the t-butyl group in 89

pIC50 (HIV-1 protease; read-out: IC50): 7.30
Compound: CC[C@H](C)[C@@H]1NC(=O)[C@@H](NCC(O)[C@H](Cc2ccccc2)NC(=O)c2cccc(C)c2)Cc2ccc(cc2)OCCCNC1=O (stereo partly shown) [Compound 92]

pIC50 (HIV-1 protease; read-out: IC50): 9.00
Compound: O=C1N(Cc2ccc(CO)cc2)[C@H](Cc2ccccc2)[C@H](O)[C@@H](O)[C@@H](Cc2ccccc2)N1Cc1ccc(CO)cc1 [Compound 94, reference compound]

pIC50 (HIV-1 protease; [3]): 8.30
Compound: CC[C@H](C)[C@@H]1NC(=O)[C@@H](NC[C@@H](O)[C@H](Cc2ccc(OCC(=O)O)cc2)NC(=O)OC(C)(C)C)Cc2ccc(cc2)OCCCNC1=O [Compound 99]

pIC50 (HIV-1 protease; [3]): 8.70
Compound: CC[C@H](C)[C@@H]1NC(=O)[C@@H](NC[C@@H](O)[C@H](Cc2ccc(OCC(=O)OC)cc2)NC(=O)OC(C)(C)C)Cc2ccc(cc2)OCCCNC1=O [Compound 101]

pIC50 (HIV-1 protease; [3]): 8.70
Compound: CCCCCCOC(=O)COc1ccc(C[C@H](NC(=O)OC(C)(C)C)[C@H](O)CN[C@H]2Cc3ccc(cc3)OCCCNC(=O)[C@H]([C@@H](C)CC)NC2=O)cc1 [Compound 105]

protease inhibition, stated in words (HIV-1 protease): slightly enhanced activity
pIC50 (HIV-1 protease; [3]): 6.60
Compound: CC(C)(C)OC(=O)N[C@@H](Cc1ccccc1)[C@H](O)CN[C@H]1Cc2ccc(cc2)OCCCNC(=O)[C@@H](CCC(N)=O)NC1=O [Compound 107]

protease inhibition, stated in words (HIV-1 protease): slightly enhanced activity
Compound: CC(C)(C)OC(=O)N[C@@H](Cc1ccccc1)[C@@H](O)CN[C@H]1Cc2ccc(cc2)OCCCNC(=O)[C@@H](CCC(N)=O)NC1=O [Compound 108]

potency relative to compound 110 (HIV-1 protease): 100 -fold
Compound: CC[C@H](C)[C@@H]1NC(=O)[C@@H](NC[C@@H](O)[C@@H]2Cc3ccc(cc3)OCCCC(=O)N[C@@H](CC(N)=O)C(=O)N2)Cc2ccc(cc2)OCCCNC1=O [Compound 109]

pIC50 (HIV-1 protease; Table 11, pH 6.5, 37° C., read-out: IC50): 8.10
pIC50 (HIV-1 protease; read-out: IC50): 9.00
Compound: CC[C@H](C)[C@@H]1NC(=O)[C@@H](NC[C@@H](O)[C@@H]2Cc3ccc(cc3)OCCCC(=O)N[C@@H](C(C)C)C(=O)N2)Cc2ccc(cc2)OCCCNC1=O [Compound 111]

protease inhibition, stated in words (HIV-1 protease): more successfully mimics JG-365
Compound: CC[C@H](C)[C@@H]1NC(=O)[C@@H]2CN(CCCCCNC1=O)CCN2C[C@@H](O)[C@@H]1Cc2ccc(cc2)OCCCC(=O)N[C@@H](C(C)C)C(=O)N1 [Compound 123]

protease inhibition, stated in words (HIV-1 protease): quite active
Compound: CC(C)C1NC(=O)CCCOc2ccc(cc2)CC(C(O)CNC2Cc3ccc(cc3)OCCCNC(=O)C(CCC(N)=O)NC2=O)NC1=O (stereo not shown) [Compound 131]

More lines, now with the values behind:

Compound: CC(C)(C)NC(=O)[C@@H]1CCCN1C[C@H](O)[C@@H]1Cc2ccc(cc2)OCCCC(=O)N[C@@H](CC(N)=O)C(=O)N1 [Compound 39]
pIC50 (HIV-1 protease; read-out: IC50): 6.31

Compound: CC(C)N(C(=O)[C@@H]1CCCN1C[C@@H](O)[C@@H]1Cc2ccc(cc2)OCCCC(=O)N[C@@H](CC(N)=O)C(=O)N1)C(C)C [Compound 40]
pIC50 (HIV-1 protease): 3.97
protease inhibition, stated in words (HIV-1 protease): much less active

Compound: CC(C)N(C(=O)[C@@H]1CCCN1C[C@H](O)[C@@H]1Cc2ccc(cc2)OCCCC(=O)N[C@@H](CC(N)=O)C(=O)N1)C(C)C [Compound 41]
pIC50 (HIV-1 protease): 3.54
protease inhibition, stated in words (HIV-1 protease): much less active

Compound: CC(C)(C)NC(=O)[C@@H]1CCCCN1C[C@H](O)[C@@H]1Cc2ccc(cc2)OCCCC(=O)N[C@@H](CC(N)=O)C(=O)N1 [Compound 45]
pIC50 (HIV-1 protease): 5.25

Compound: CC[C@H](C)[C@H](NC(=O)[C@H](Cc1ccccc1)NC[C@@H](O)[C@@H]1Cc2ccc(cc2)OCCCC(=O)N[C@@H](C(C)C)C(=O)N1)C(=O)N[C@H](C(N)=O)C(C)C [Compound 46]
protease inhibition, stated in words (HIV-1 protease): there was not a great deal of difference

Compound: CC[C@H](C)[C@H](NC(=O)[C@H](Cc1ccccc1)NC[C@H](O)[C@@H]1Cc2ccc(cc2)OCCCC(=O)N[C@@H](C(C)C)C(=O)N1)C(=O)N[C@H](C(N)=O)C(C)C [Compound 47]
protease inhibition, stated in words (HIV-1 protease): there was not a great deal of difference

Compound: CC(C)C[C@@H]1NC(=O)CCCOc2ccc(cc2)C[C@@H]([C@H](O)CN2CCCC[C@H]2C(=O)NC(C)(C)C)NC1=O [Compound 54]
protease inhibition, stated in words (HIV-1 protease): slightly better than the isopropyl of 48/49

Compound: CC(C)C[C@@H]1NC(=O)CCCOc2ccc(cc2)C[C@@H]([C@@H](O)CN2CCCC[C@H]2C(=O)NC(C)(C)C)NC1=O [Compound 55]
protease inhibition, stated in words (HIV-1 protease): slightly better than the isopropyl of 48/49

Compound: CC(=O)Nc1ccc(S(=O)(=O)N(CCC(C)C)C[C@H](O)[C@@H]2Cc3ccc(cc3)OCCCC(=O)N[C@@H](C(C)C)C(=O)N2)cc1 [Compound 59]
protease inhibition, stated in words (HIV-1 protease): potent inhibitors of HIV-1 protease

Compound: CC(C)CCN(C[C@@H](O)[C@@H]1Cc2ccc(cc2)OCCCC(=O)N[C@@H](C(C)C)C(=O)N1)S(=O)(=O)c1ccc(N)cc1 [Compound 60]
protease inhibition, stated in words (HIV-1 protease): Greater activity; also recorded: potent inhibitors of HIV-1 protease
pIC50 (HIV-1 protease; [1]): 8.70

Compound: CC(C)CCN(C[C@@H](O)[C@@H]1Cc2ccc(cc2)OCCCCC(=O)N[C@@H](C(C)C)C(=O)N1)S(=O)(=O)c1ccc(N)cc1 [Compound 62]
pIC50 (HIV-1 protease; [1]): 9.00

Compound: CC(C)CCN(C[C@@H](O)[C@@H]1Cc2ccc(cc2)OCCCCCC(=O)N[C@@H](C(C)C)C(=O)N1)S(=O)(=O)c1ccc(N)cc1 [Compound 64]
pIC50 (HIV-1 protease; read-out: IC50): 8.70

Compound: CC(C)[C@@H]1NC(=O)CCCOc2ccc(cc2)C[C@@H]([C@H](O)CN2CCN(Cc3ccccc3)CC2C(=O)NC(C)(C)C)NC1=O (stereo partly shown) [Compound 82]
protease inhibition, stated in words (HIV-1 protease): increased potency

Compound: CC(C)[C@@H]1NC(=O)CCCOc2ccc(cc2)C[C@@H]([C@@H](O)CN2CCN(Cc3ccccc3)CC2C(=O)NC(C)(C)C)NC1=O (stereo partly shown) [Compound 83]
protease inhibition, stated in words (HIV-1 protease): increased potency

Compound: CC[C@H](C)[C@@H]1NC(=O)[C@@H](NC[C@@H](O)[C@H](Cc2ccccc2)NC(=O)[C@@H](NC(=O)[C@H](CC(C)C)NC(C)=O)C(C)C)Cc2ccc(cc2)OCCCNC1=O [Compound 87, [2(R),3(S),11'(S),8'(S)]-3-[-Acetyl-(S)-leucinyl-(S)-valinyl]amino-4-phenyl-1-[11'-[7',10'-dioxo-8'-(1-methylpropyl)-2'-oxa-6',9'-diazabicyclo[11.2.2]heptadeca-13',15',16'-triene]amino]butan-2-ol]
protease inhibition, stated in words (HIV-1 protease): little effect
pIC50 (HIV-1 protease; [2]): 8.70

Compound: CC[C@H](C)[C@@H]1NC(=O)[C@@H](NC[C@@H](O)[C@H](Cc2ccccc2)NC(=O)[C@@H](NC(=O)[C@H](CC(C)C)NC(C)=O)C(C)C)Cc2ccc(cc2)OCCCCNC1=O [Compound 88]
protease inhibition, stated in words (HIV-1 protease): little effect
pIC50 (HIV-1 protease; [2]): 8.30

Compound: CC[C@H](C)[C@@H]1NC(=O)[C@@H](NC[C@@H](O)[C@H](Cc2ccccc2)NC(=O)OC(C)(C)C)Cc2ccc(cc2)OCCCNC1=O [Compound 89, [2R, 3S, 11'S, 8'S]-3-[t-butoxycarbonyl]amino-4-phenyl-1-[11'-[7', 10'-dioxo-8'-(1-methylpropyl)-2'-oxa-6',9'-diazabicyclo[11.2.2]heptadeca-13',15',16'-triene]amino]butan-2-ol]
pIC50 (HIV-1 protease; [2]): 7.82

Compound: CC[C@H](C)[C@@H]1NC(=O)[C@@H](NC[C@H](Cc2ccccc2)NC(=O)OC(C)(C)C)Cc2ccc(cc2)OCCCNC1=O [Compound 90, [2S, 11'S, 8'S]-2-[t-butoxycarbonyl]amino-3-phenyl-1-[11'-[7',10'-dioxo-8'-(-1-methylpropyl)-2'-oxa-6',9'-diazabicyclo[11.2.2]heptadeca-13',15',16'-triene]amino]propane]
pIC50 (HIV-1 protease; [2]): 6.82

Compound: Ac-LNFPIV-NH2 [Compound 85, reference compound]
pIC50 (HIV-1 protease; [2]): 7.22
pIC50 (HIV-1 protease; [4]): 8.05

Compound: Ac-LVFFIV-NH2 [Compound 86, reference compound]
pIC50 (HIV-1 protease; [2]): 8.30

Compound: Ac-SLNFPIV-NH2 [Compound 84, reference compound]
pIC50 (HIV-1 protease; [2]): 7.66
pIC50 (HIV-1 protease; [4]): 9.00

Compound: Ac-Ser-Leu-Asn-Phe-[CHOH--CH2 ]-Pro-Ile-Val-OMe (Ac-SLNFPIV-OMe; also: hydroxyethylene isostere [CHOH-CH2] replaces the Phe-Pro amide bond) [JG-365, reference compound]
pIC50 (HIV-1 protease; R-isomer of JG-365, pH 6.5, 37° C., read-out: IC50 (Inhibitor Potency)): 7.36
pIC50 (HIV-1 protease; S-isomer of JG-365, pH 6.5, 37° C., read-out: IC50 (Inhibitor Potency)): 8.22
anti-viral activity, stated in words (HIV): do not have anti-viral activity
activity against HIV in cells (HIV; at 100 μM): inactive

Compound: AcLeuAsnPhe[^* CHOH--CH2 N]ProIleValOMe [Compound 1, reference compound]
pIC50 (HIV-1 protease; AcLeuAsnPhe[CHOH--CH2 N]ProIleValOMe, pH 6.5, 37° C., read-out: IC50): 7.22
reduction of protease inhibition on truncation of the Serine (HIV-1 protease; versus JG-365): 10 -fold
